In US20180002320A1, “USE OF MACROCYCLIC PICOLINAMIDES AS FUNGICIDES” (DOW AGROSCIENCES LLC, priority 2014, published 2018) one finds pest or weed control data, which are given here for 25 compounds.

Like-named read-outs stand apart in the source and are kept apart here. Some results are limits rather than exact numbers.

The test system of assay [1] is Zymoseptoria tritici. Kind of assay: Leaf Blotch of Wheat (SEPTTR) fungicidal activity. The format is in vivo. The conditions noted are these: Low Volume (121.5 g/H). On the procedure: Technical grades of materials were dissolved in acetone, which were then mixed with nine volumes of H2O containing 110 ppm Triton X-100. The fungicide solutions were applied onto wheat seedlings using an automated booth sprayer to run-off. All sprayed plants were allowed to air dry prior to further handling. All fungicides were evaluated using the aforementioned method for their activity vs. all target diseases, unless stated otherwise. Wheat leaf blotch and brown rust activity were also evaluated using track spray applications, in which case the fungicides were formulated as EC formulations, containing 0.1% Trycol 5941 in the spray solutions. Wheat plants (variety Yuma) were grown from seed in a greenhouse in 50% mineral soil/50% soil-less Metro mix until the first leaf was fully emerged, with 7-10 seedlings per pot. These plants were inoculated with an aqueous spore suspension of Zymoseptoria tritici either prior to or after fungicide treatments. After inoculation the plants were kept in 100% relative humidity (one day in a dark dew chamber followed by two to three days in a lighted dew chamber at 20° C.) to permit spores to germinate and infect the leaf. The plants were then transferred to a greenhouse set at 20° C. for disease to develop. When disease symptoms were fully expressed on the 1st leaves of untreated plants, infection levels were assessed on a scale of 0 to 100 percent disease severity. Percent disease control was calculated using the ratio of disease severity on treated plants relative to untreated plants.

For assay [2], the system named is Puccinia triticina. Kind of assay: Wheat Brown Rust (PUCCRT) fungicidal activity. Type of assay: in vivo. To be noted: Low Volume (121.5 g/H). As for the experimental part: Technical grades of materials were dissolved in acetone, which were then mixed with nine volumes of H2O containing 110 ppm Triton X-100. The fungicide solutions were applied onto wheat seedlings using an automated booth sprayer to run-off. All sprayed plants were allowed to air dry prior to further handling. All fungicides were evaluated using the aforementioned method for their activity vs. all target diseases, unless stated otherwise. Wheat leaf blotch and brown rust activity were also evaluated using track spray applications, in which case the fungicides were formulated as EC formulations, containing 0.1% Trycol 5941 in the spray solutions. Wheat plants (variety Yuma) were grown from seed in a greenhouse in 50% mineral soil/50% soil-less Metro mix until the first leaf was fully emerged, with 7-10 seedlings per pot. These plants were inoculated with an aqueous spore suspension of Puccinia triticina either prior to or after fungicide treatments. After inoculation the plants were kept in a dark dew room at 22° C. with 100% relative humidity overnight to permit spores to germinate and infect the leaf. The plants were then transferred to a greenhouse set at 24° C. for disease to develop. Fungicide formulation, application and disease assessment followed the procedures as described in the Example A.

[3] abbreviates: 24 h, 1 Day Protectant, read-out: SEPTTR 1DP disease control.
[4] abbreviates: 72 h, 3 Day Curative, read-out: SEPTTR 3DC disease control.
The mark [5] stands for this setting: 24 h, 1 Day Protectant, read-out: PUCCRT 1DP disease control.
Where [6] appears, read: 72 h, 3 Day Curative, read-out: PUCCRT 3DC disease control.

On to `CCC[C@H]1CCCC[C@H](NC(=O)c2nccc(OC)c2OCOC(C)=O)C(=O)O[C@@H](C)[C@@H]1OCC(C)C` [Cmpd 30, ((2-(((3S,8S,9R,10S)-9-isobutoxy-10-methyl-2-oxo-8-propyloxecan-3-yl)carbamoyl)-4-methoxypyridin-3-yl)oxy)methyl acetate], for which the pest or weed control at 121.5 g/ha in assay [1] (setting [3]) was under 80%; in assay [1] (setting [4]) it was under 80%; in assay [2] (setting [5]), over 80%; in assay [2] (setting [6]), under 80%.

Regarding `COc1ccnc(C(=O)N[C@H]2COCC[C@H](OCc3ccccc3)[C@@H](OCc3ccccc3)[C@H](C)OC2=O)c1OCOC(C)=O` [Compound 1], the pest or weed control at 121.5 g/ha in assay [1] (setting [3]) was over 80%; in assay [1] (setting [4]), under 80%; in assay [2] (setting [5]), over 80%.

In the case of `CCCCO[C@H]1CCOC[C@H](NC(=O)c2nccc(OC)c2OCOC(C)=O)C(=O)O[C@@H](C)[C@@H]1OCc1ccccc1` [Compound 2], the results for the pest or weed control at 121.5 g/ha in assay [1] (setting [3]), in assay [2] (setting [5]) and in assay [2] (setting [6]) were under 80%, over 80% and over 80%, respectively.

Turning to `CCCCO[C@H]1CCOC[C@H](NC(=O)c2nccc(OC)c2OCOC(C)=O)C(=O)O[C@@H](C)[C@@H]1OC(=O)c1ccccc1` [Compound 4], the pest or weed control at 121.5 g/ha in assay [1] (setting [3]) is under 80%; in assay [2] (setting [5]), over 80%; in assay [2] (setting [6]), over 80%.

As for `COc1ccnc(C(=O)N[C@H]2CCCC[C@H](OCc3ccccc3)[C@@H](OCc3ccccc3)[C@H](C)OC2=O)c1OCOC(C)=O` [Compound 8], the pest or weed control at 121.5 g/ha in assay [1] (setting [3]), in assay [1] (setting [4]), in assay [2] (setting [5]) and in assay [2] (setting [6]) was over 80% each time.

As to `COc1ccnc(C(=O)N[C@H]2CCCC[C@H](OCc3ccccc3)[C@@H](OCc3ccccc3)[C@H](C)OC2=O)c1OC(C)=O` [Compound 9], the pest or weed control at 121.5 g/ha in assay [1] (setting [3]) is over 80%; in assay [1] (setting [4]) it was over 80%; in assay [2] (setting [5]), over 80%; in assay [2] (setting [6]), under 80%.

For `COc1ccnc(C(=O)N[C@H]2CCCC[C@H](OC)[C@@H](Oc3ccccc3)[C@H](C)OC2=O)c1OCOC(C)=O` [Compound 11], the pest or weed control at 121.5 g/ha in assay [1] (setting [3]), in assay [1] (setting [4]), in assay [2] (setting [5]) and in assay [2] (setting [6]) was over 80% each time.

Consider `COc1ccnc(C(=O)N[C@H]2CCCC[C@H](OCC(C)C)[C@@H](Oc3ccccc3)[C@H](C)OC2=O)c1OCOC(C)=O` [Compound 13], for which the pest or weed control at 121.5 g/ha in assay [1] (setting [3]), in assay [1] (setting [4]), in assay [2] (setting [5]) and in assay [2] (setting [6]) was over 80% in each case.

Take `COc1ccnc(C(=O)N[C@H]2CCCC[C@H](OCC(C)C)[C@@H](OCC(C)C)[C@H](C)OC2=O)c1OCOC(C)=O` [Compound 14]: the pest or weed control at 121.5 g/ha in assay [1] (setting [3]) was over 80%; in assay [1] (setting [4]) it was under 80%; in assay [2] (setting [5]) it was over 80%; in assay [2] (setting [6]), under 80%.

For the compound `CCCCCO[C@H]1[C@H](C)OC(=O)[C@@H](NC(=O)c2nccc(OC)c2OCOC(C)=O)CCCC[C@@H]1OC(=O)c1ccccc1` [Compound 15], the pest or weed control at 121.5 g/ha is over 80% in assay [1] (setting [3]), over 80% in assay [1] (setting [4]), over 80% in assay [2] (setting [5]) and under 80% in assay [2] (setting [6]).

Consider `COc1ccnc(C(=O)N[C@H]2CCOC[C@H](Cc3ccccc3)[C@@H](OCC(C)C)[C@H](C)OC2=O)c1OCOC(C)=O` [Compound 16], for which the pest or weed control at 121.5 g/ha is under 80% in assay [1] (setting [3]), under 80% in assay [1] (setting [4]), over 80% in assay [2] (setting [5]) and under 80% in assay [2] (setting [6]).

On to `COc1ccnc(C(=O)N[C@H]2CCCC[C@H](Oc3ccccc3)[C@@H](Oc3ccccc3)[C@H](C)OC2=O)c1OCOC(C)=O` [Compound 19], for which the pest or weed control at 121.5 g/ha in assay [1] (setting [3]), in assay [1] (setting [4]), in assay [2] (setting [5]) and in assay [2] (setting [6]) was over 80% in each case.

For the compound `COc1ccnc(C(=O)N[C@H]2COCC[C@H](Cc3ccccc3)[C@@H](OCC(C)C)[C@H](C)OC2=O)c1OCOC(C)=O` [Compound 20], the pest or weed control at 121.5 g/ha in assay [1] (setting [3]) is under 80%; in assay [1] (setting [4]), over 80%; in assay [2] (setting [5]), over 80%; in assay [2] (setting [6]) it was over 80%.

For the compound `COc1ccnc(C(=O)N[C@H]2COCC[C@H](Cc3ccccc3)[C@@H](OCC(C)C)[C@H](C)OC2=O)c1OC(C)=O` [Compound 21], the pest or weed control at 121.5 g/ha in assay [1] (setting [3]) was under 80%; in assay [1] (setting [4]), over 80%; in assay [2] (setting [5]), over 80%; in assay [2] (setting [6]), over 80%.

Take `COc1ccnc(C(=O)N[C@H]2CCCC[C@H](OC)[C@@H](OC)[C@H](C)OC2=O)c1OCOC(C)=O` [Compound 22]: the pest or weed control at 121.5 g/ha was under 80% in assay [1] (setting [4]), over 80% in assay [2] (setting [5]) and over 80% in assay [2] (setting [6]).

`CCCO[C@H]1CCCC[C@H](NC(=O)c2nccc(OC)c2OCOC(C)=O)C(=O)O[C@@H](C)[C@@H]1Oc1ccccc1` [Compound 23]: the pest or weed control at 121.5 g/ha in assay [1] (setting [3]), in assay [1] (setting [4]), in assay [2] (setting [5]) and in assay [2] (setting [6]) was over 80% each time.

With `COc1ccnc(C(=O)N[C@H]2CCCC[C@H](Cc3ccccc3)[C@@H](OCC(C)C)[C@H](C)OC2=O)c1OCOC(C)=O` [Compound 24], the pest or weed control at 121.5 g/ha in assay [1] (setting [3]) is over 80%; in assay [1] (setting [4]), over 80%; in assay [2] (setting [5]), over 80%; in assay [2] (setting [6]), under 80%.

For the compound `COc1ccnc(C(=O)N[C@H]2CCCC[C@H](Oc3ccccc3)[C@@H](Oc3ccccc3)[C@H](C)OC2=O)c1OC(C)=O` [Compound 25], the pest or weed control at 121.5 g/ha is over 80% in assay [1] (setting [3]), under 80% in assay [1] (setting [4]), over 80% in assay [2] (setting [5]) and under 80% in assay [2] (setting [6]).

`CCCO[C@H]1CCCC[C@H](NC(=O)c2nccc(OC)c2OC(C)=O)C(=O)O[C@@H](C)[C@@H]1Oc1ccccc1` [Compound 26]: the pest or weed control at 121.5 g/ha in assay [1] (setting [3]), in assay [1] (setting [4]), in assay [2] (setting [5]) and in assay [2] (setting [6]) was over 80% throughout.

Consider `COc1ccnc(C(=O)N[C@H]2CCCC[C@H](OC)[C@@H](OC)[C@H](C)OC2=O)c1OC(C)=O` [Compound 27], for which the pest or weed control at 121.5 g/ha in assay [1] (setting [3]) was under 80%; in assay [2] (setting [5]), over 80%; in assay [2] (setting [6]), over 80%.

As for `COc1ccnc(C(=O)N[C@H]2CCCC[C@H](OC)[C@@H](OCC(C)C)[C@H](C)OC2=O)c1OC(C)=O` [Compound 28], the pest or weed control at 121.5 g/ha was under 80% in assay [1] (setting [3]), over 80% in assay [1] (setting [4]), over 80% in assay [2] (setting [5]) and over 80% in assay [2] (setting [6]).

With `COc1ccnc(C(=O)N[C@H]2CCCC[C@@H]3OC(C)(C)O[C@H]3[C@H](C)OC2=O)c1OC(C)=O` [Compound 29], the pest or weed control at 121.5 g/ha in assay [1] (setting [3]) was under 80%; in assay [1] (setting [4]), over 80%; in assay [2] (setting [5]), over 80%; in assay [2] (setting [6]), over 80%.

For the compound `CCC[C@H]1CCCC[C@H](NC(=O)c2nccc(OC)c2OCOC(C)=O)C(=O)O[C@@H](C)[C@@H]1OC(=O)C(C)C` [Compound 31], the pest or weed control at 121.5 g/ha is under 80% in assay [1] (setting [3]), under 80% in assay [1] (setting [4]), over 80% in assay [2] (setting [5]) and under 80% in assay [2] (setting [6]).

In the case of `COc1ccnc(C(=O)N[C@H]2CCCC[C@H](OC3CCCC3)[C@@H](OC)[C@H](C)OC2=O)c1OCOC(C)=O` [Compound 35], the pest or weed control at 121.5 g/ha in assay [2] (setting [5]) was over 80%; in assay [2] (setting [6]) it was under 80%.

With `COc1ccnc(C(=O)N[C@H]2CCOC[C@H](OCC(C)C)[C@@H](OCC(C)C)[C@H](C)OC2=O)c1OCOC(C)=O` [Compound 43], the pest or weed control at 121.5 g/ha in assay [2] (setting [5]) is over 80%; in assay [2] (setting [6]), under 80%.
